Assay [1] deals with C8161 melanoma cells. The experiment in a line: Detachment assay, C8161 cells. Format: cell-based, human. The settings on record: INT2-31 5 μM at 72 h; TAE 226 at 48 h and 72 h. As for the experimental part: In detachment assays, detached and attached cells were harvested separately and counted in a hemocytometer. The percentage of detachment was calculated by dividing the number of detached cells by the total number of cells.
Detachment assay: Cells were plated with and without compound for 24, 48, and 72 h, and detached and attached cells were counted in a hemocytometer. The percent of detachment was calculated by dividing the number of detached cells by the total number of cells and experiments performed in triplicate. Apoptosis assays: After treatment, attached and detached cells were collected, counted and prepared for terminal uridine deoxynucleotidyl transferase (TUNEL) assay by utilizing an APO-BRDU kit (BD Pharmingen, San Diego, Calif.) and cells analyzed with a FACSCalibur cytometer (Becton Dickinson, San Jose, Calif.). In addition, apoptotic cells were analyzed with Hoechst 33342 staining (1 μg/ml). The percent of apoptotic cells was calculated as the ratio of apoptotic cells to total number of cells.

In assay [2] the test system is A375 melanoma cells. The assay can be described thus: Cell viability (MTT), A375. Format: cell-based, human. As to conditions: A375, MTT. As to the method:
(§1) Cell viability (MTT) and CFSE Proliferation assay: Cells were plated in 96-well plates and let adhere overnight. After cell treatment, cell viability was measured by 3-(4,5-dimethylthiazol-2-yl)-2,5-diphenyl tetrazolium bromide (MTT) assay (CellTiter 96® Aqueous, Promega, Madison, Wis.).
(§2) Cell viability and detachment assays: After cells were treated with siRNA transfection, cell viability was measured by 3-(4,5-dimethylthiazol2-yl)-2,5-diphenyl tetrazolium bromide (MTT) assay (CellTiter 96® AQueous, Promega, Madison, Wis.). Briefly, 20 μl of the tetrazolium compound was added to each well. The cells were then incubated at 37° C. for 1 h. The plate was read at 490 nm with a plate reader to determine the viability. In detachment assays, detached and attached cells were harvested separately and counted in a hemocytometer. The percentage of detachment was calculated by dividing the number of detached cells by the total number of cells. Apoptosis assays: After treatment, attached and detached cells were collected, counted and prepared for terminal uridine deoxynucleotidyl transferase (TUNEL) assay by utilizing an APO-BRDU kit (BD Pharmingen, San Diego, Calif.) according to the manufacturer's instructions. Stained cells were analyzed with a fluorescence-activated cell sorting-Calibur flow cytometer (BD Biosciences). Calculation of the percentage of apoptotic cells in the sample was completed with CellQuest software (BD Biosciences). Apoptotic cells were also analyzed by Hoechst staining. Hoechst 33342 ([…]) was added to the fixed cells and the specimens were mounted on glass coverslips. The slides were viewed under the Zeiss microscope for apoptotic nuclei. The percent of apoptotic cells was calculated as the ratio of apoptotic cells to total number of cells.
In addition, the effect of INT2-31 on cell viability of esophageal, pancreatic and breast cancer cell lines was analyzed and the IC50 value for each cell line was determined, as shown in Table 1. […] Similar to melanoma results, INT2-31 inhibits viability more in cancer cells compared to normal cells. […]

In assay [3] the test system is C8161 melanoma cells. The assay can be described thus: Cell viability (MTT), C8161. Format: cell-based, human. The settings on record: C8161, MTT. As to the method: as §1, §2
(§3) In addition, the effect of INT2-31 on cell viability of esophageal, pancreatic and breast cancer cell lines was analyzed and the IC50 value for each cell line was determined, as shown in Table 1. […] Similar to melanoma results, INT2-31 inhibits viability more in cancer cells compared to normal cells. Sensitivity of the cells to INT2-31 varied and directly correlated to the FAK and IGF-1R expression level of the cells.
To determine the effect on melanoma cell viability, three human melanoma cell lines were exposed to increasing doses of INT2-31 for 72 h and the results compared to human melanocytes. […] The effects of INT2-31 varied in the three cell lines and was possibly related to constitutive FAK and IGF-1R activation with the least sensitive cell line (SK-MEL-28) having the greatest expression of FAK and IGF-1R.

Assay [4] addresses T1, FAK-NT2 and IGF-1R (Homo sapiens, UniProt Q05397).
T1 construct: FAK-NT2 (a.a. 127-243); expressed in transfected cells
The assay can be described thus: Immunofluorescent staining and confocal microscopy, colocalization. Format: cell-based. As to conditions: cells transfected in the presence of the compound. As for the experimental part: Cells were fixed in 3.7% paraformaldehyde in 1×PBS for 10 min and permeabilized with 0.5% Triton X-100 for 5 minutes. Cells were then washed with 1×PBS, blocked with 25% normal goat serum in 1×PBS for 20 min and incubated with primary antibody (1:200 dilution in 25% goat serum) for 30 min at room temperature. After washing three times with 1×PBS, cells were incubated with a Texas Red-conjugated secondary antibody (1:400 dilution in 25% goat serum) for 30 min at room temperature and washed another three times with 1×PBS before observed under the microscope. For coimmunostaining experiments, cells were incubated with another primary antibody diluted 1:100 in 25% goat serum for 1 h. After washing three times with 1×PBS, a fluorescein isothiocyanate-conjugated secondary antibody (1:100 dilution) was applied to the coverslip. Cells immunostained with FAK and IGF-IR antibodies were evaluated for colocalization with a Leica confocal microscope and the MRC-1024 confocal laser scanning system. Cells treated with FAK-CD or FAK siRNA with or without test compound were stained with FAK antibody and evaluated for displacement of FAK from the focal adhesions with a Zeiss microscope. […] Colocalization is low for FAK-NT1, FAK-NT3 and FAK-CD.

Assay [5] has as its system KYSE140 esophageal cancer cells. The experiment in a line: Cell viability (MTT), KYSE140. Format: cell-based. The settings on record: KYSE 140, 72 hours. As to the method: as §1, §2, §3
Assay [6] concerns KYSE70 esophageal cancer cells. The assay can be described thus: Cell viability (MTT), KYSE70. Format: cell-based. As to conditions: KYSE 70, 72 hours. As to the method: as §1, §2, §3
Assay [7] has as its system IGF-1R+/+ and −/− MEFs. The experiment in a line: MTT assay on IGF-1R wildtype and null fibroblasts. Format: cell-based, mouse. The settings on record: MTT, p<0.05. As for the experimental part: as §1
(§4) Cell proliferation assay: Cell proliferation assay (Promega) using CellTiter 96 aqueous one solution was performed by adding a small amount of the One Solution Reagent directly to culture wells, incubating for 1-4 hours and then recording absorbance at 490 nm with a spectrophotometric plate reader. The quantity of formazan product as measured by the amount of 490 nm absorbance was directly proportional to the number of living cells in culture.
as §2
A general note: Formazan colour is commonly taken as a measure of viable cells.

Assay [8] deals with FAK +/+ and FAK −/− mouse embryonic fibroblast. The assay can be described thus: MTT assay on FAK wildtype and null fibroblasts. The settings on record: MTT, p<0.05. Format: cell-based. As for the experimental part: as §1, §4, §2

T1 sequence (Q05397 127-243): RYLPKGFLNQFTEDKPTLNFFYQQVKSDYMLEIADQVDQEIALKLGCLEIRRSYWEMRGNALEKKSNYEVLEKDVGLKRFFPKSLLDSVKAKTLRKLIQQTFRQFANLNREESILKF

With `CNC(=O)c1ccccc1Nc1nc(Nc2ccc(N3CCOCC3)cc2OC)ncc1Cl` [TAE 226, reference compound], the “effect on detachment (in words)” value in assay [1] was “Greater effects”.
Consider `CC(=O)C1=C(O)C2(C)c3c(O)c(C)c(O)c(C(C)=O)c3OC2(Sc2ccccc2)CC1=O` (centres unmarked) [NSC 250435, 1,1′-(1,7,9-Trihydroxy-8,9b-dimethyl-3-oxo-4-a-(phenylthio)-3,4,4a,9b-tetrahydrodibenzo-[b,d]furan-2,6-diyl)diethanone], for which the “cell viability (in words)” value in assay [2] and in assay [3] was “inhibited cell viability” throughout. The “percentage of interaction between FAK-NT2 and IGF-1R” value in assay [4] was “around 30%”.
For the compound `O=c1[nH]cc(F)c(=O)[nH]1` [5-FU, 5-Fluorouracil, reference compound], the “sensitivity of cells to single-agent treatment” value in assay [5] and in assay [6] was “sensitive” each time.
For the compound `Nc1ncnc2c1c(-c1cccc(OCc3ccccc3)c1)cn2C1CC(CN2CCC2)C1` (centres unmarked) [NVP AEW541, reference compound], the “effect on IGF-1R wildtype compared to null fibroblasts” value in assay [7] is on record as “increased effect”. The “effect on FAK wildtype compared to null fibroblasts” value in assay [8] is reported as “increased effect”.

Source of the values: patent US20120107323A1, “KINASE PROTEIN BINDING INHIBITORS” (University of Florida, priority 2009, published 2012).
